{"source": "ChEMBL document CHEMBL3045835", "about": "“Comparative study of conventional and microwave-assisted synthesis of some Schiff bases and their potential as antimicrobial agents” (2012)", "assay_type_in_all_cases": "functional", "key": {"Escherichia coli [1]": {"tested_on": "Escherichia coli", "assay": "Antibacterial activity against Escherichia coli MTCC 1573 at 1500 ug/ml after 18 hr by cup-plate method", "conditions": "MTCC 1573, 18 h, read-out: DIZ"}, "Bacillus subtilis [2]": {"tested_on": "Bacillus subtilis", "assay": "Antibacterial activity against Bacillus subtilis MTCC 441 at 200 ug/ml after 18 hr by cup plate method", "conditions": "MTCC 441, 18 h, read-out: DIZ"}, "Staphylococcus aureus [3]": {"tested_on": "Staphylococcus aureus", "assay": "Antibacterial activity against Staphylococcus aureus MTCC 1430 at 500 ug/ml after 18 hr by cup-plate method", "conditions": "MTCC 1430, 18 h, read-out: DIZ"}, "Aspergillus niger [4]": {"tested_on": "Aspergillus niger", "assay": "Antifungal activity against Aspergillus niger MTCC 2546 after 24 hr by broth dilution method", "conditions": "MTCC 2546, 24 h"}, "Penicillium chrysogenum [5]": {"tested_on": "Penicillium chrysogenum", "assay": "Antifungal activity against Penicillium chrysogenum MTCC 161 after 24 hr by broth dilution method", "conditions": "MTCC 161, 24 h"}, "Staphylococcus aureus [6]": {"tested_on": "Staphylococcus aureus", "assay": "Antibacterial activity against Staphylococcus aureus MTCC 1430 at 100 ug/ml after 18 hr by cup-plate method", "conditions": "MTCC 1430, 18 h, read-out: DIZ"}, "Pseudomonas fluorescens [7]": {"tested_on": "Pseudomonas fluorescens", "assay": "Antibacterial activity against Pseudomonas fluorescens MTCC 2421 at 200 ug/ml after 18 hr by cup-plate method", "conditions": "MTCC 2421, 18 h, read-out: DIZ"}, "Micrococcus luteus [8]": {"tested_on": "Micrococcus luteus", "assay": "Antibacterial activity against Micrococcus luteus MTCC 1538 at 500 ug/ml after 18 hr by cup-plate method", "conditions": "MTCC 1538, 18 h, read-out: DIZ"}, "Micrococcus luteus [9]": {"tested_on": "Micrococcus luteus", "assay": "Antibacterial activity against Micrococcus luteus MTCC 1538 at 200 ug/ml after 18 hr by cup-plate method", "conditions": "MTCC 1538, 18 h, read-out: DIZ"}, "Pseudomonas aeruginosa [10]": {"tested_on": "Pseudomonas aeruginosa", "assay": "Antibacterial activity against Pseudomonas aeruginosa MTCC 424 at 1500 ug/ml after 18 hr by cup-plate method", "conditions": "MTCC 424, 18 h, read-out: DIZ"}, "Escherichia coli [11]": {"tested_on": "Escherichia coli", "assay": "Antibacterial activity against Escherichia coli MTCC 1573 at 500 ug/ml after 18 hr by cup-plate method", "conditions": "MTCC 1573, 18 h, read-out: DIZ"}, "Escherichia coli [12]": {"tested_on": "Escherichia coli", "assay": "Antibacterial activity against Escherichia coli MTCC 1573 at 100 ug/ml after 18 hr by cup-plate method", "conditions": "MTCC 1573, 18 h, read-out: DIZ"}, "Penicillium chrysogenum [13]": {"tested_on": "Penicillium chrysogenum", "assay": "Antifungal activity against Penicillium chrysogenum MTCC 161 at 500 ug/ml after 18 hr by cup-plate method", "conditions": "MTCC 161, 18 h, read-out: DIZ"}, "Bacillus pumilus [14]": {"tested_on": "Bacillus pumilus", "assay": "Antibacterial activity against Bacillus pumilus MTCC 1456 at 100 ug/ml after 18 hr by cup-plate method", "conditions": "MTCC 1456, 18 h, read-out: DIZ"}, "Aspergillus niger [15]": {"tested_on": "Aspergillus niger", "assay": "Antifungal activity against Aspergillus niger MTCC 2546 at 200 ug/ml after 18 hr by cup-plate method", "conditions": "MTCC 2546, 18 h, read-out: DIZ"}, "Pseudomonas fluorescens [16]": {"tested_on": "Pseudomonas fluorescens", "assay": "Antibacterial activity against Pseudomonas fluorescens MTCC 2421 at 1500 ug/ml after 18 hr by cup-plate method", "conditions": "MTCC 2421, 18 h, read-out: DIZ"}, "Pseudomonas aeruginosa [17]": {"tested_on": "Pseudomonas aeruginosa", "assay": "Antibacterial activity against Pseudomonas aeruginosa MTCC 424 at 500 ug/ml after 18 hr by cup-plate method", "conditions": "MTCC 424, 18 h, read-out: DIZ"}, "Escherichia coli [18]": {"tested_on": "Escherichia coli", "assay": "Antibacterial activity against Escherichia coli MTCC 1573 after 24 hr by broth dilution method", "conditions": "MTCC 1573, 24 h"}, "Bacillus subtilis [19]": {"tested_on": "Bacillus subtilis", "assay": "Antibacterial activity against Bacillus subtilis MTCC 441 after 24 hr by broth dilution method", "conditions": "MTCC 441, 24 h"}, "Staphylococcus aureus [20]": {"tested_on": "Staphylococcus aureus", "assay": "Antibacterial activity against Staphylococcus aureus MTCC 1430 at 1000 ug/ml after 18 hr by cup-plate method", "conditions": "MTCC 1430, 18 h, read-out: DIZ"}, "Pseudomonas aeruginosa [21]": {"tested_on": "Pseudomonas aeruginosa", "assay": "Antibacterial activity against Pseudomonas aeruginosa MTCC 424 at 200 ug/ml after 18 hr by cup-plate method", "conditions": "MTCC 424, 18 h, read-out: DIZ"}, "Penicillium chrysogenum [22]": {"tested_on": "Penicillium chrysogenum", "assay": "Antifungal activity against Penicillium chrysogenum MTCC 161 at 1500 ug/ml after 18 hr by cup-plate method", "conditions": "MTCC 161, 18 h, read-out: DIZ"}, "Bacillus subtilis [23]": {"tested_on": "Bacillus subtilis", "assay": "Antibacterial activity against Bacillus subtilis MTCC 441 at 1000 ug/ml after 18 hr by cup plate method", "conditions": "MTCC 441, 18 h, read-out: DIZ"}, "Bacillus subtilis [24]": {"tested_on": "Bacillus subtilis", "assay": "Antibacterial activity against Bacillus subtilis MTCC 441 at 100 ug/ml after 18 hr by cup plate method", "conditions": "MTCC 441, 18 h, read-out: DIZ"}, "Pseudomonas fluorescens [25]": {"tested_on": "Pseudomonas fluorescens", "assay": "Antibacterial activity against Pseudomonas fluorescens MTCC 2421 at 500 ug/ml after 18 hr by cup-plate method", "conditions": "MTCC 2421, 18 h, read-out: DIZ"}, "Bacillus pumilus [26]": {"tested_on": "Bacillus pumilus", "assay": "Antibacterial activity against Bacillus pumilus MTCC 1456 at 1500 ug/ml after 18 hr by cup-plate method", "conditions": "MTCC 1456, 18 h, read-out: DIZ"}, "Aspergillus niger [27]": {"tested_on": "Aspergillus niger", "assay": "Antifungal activity against Aspergillus niger MTCC 2546 at 500 ug/ml after 18 hr by cup-plate method", "conditions": "MTCC 2546, 18 h, read-out: DIZ"}}}
{"smiles": "O=c1c(/C=N/c2ccc(Cl)cc2)coc2ccccc12", "values": [{"measurement": "zone of inhibition at 1500 µg/mL", "setting": "Escherichia coli [1]", "result": 20, "unit": "mm"}, {"measurement": "zone of inhibition at 200 µg/mL", "setting": "Bacillus subtilis [2]", "result": 15, "unit": "mm"}, {"measurement": "zone of inhibition at 500 µg/mL", "setting": "Staphylococcus aureus [3]", "result": 16, "unit": "mm"}, {"measurement": "MIC", "setting": "Aspergillus niger [4]", "result": 200, "unit": "µg/mL"}, {"measurement": "MIC", "setting": "Penicillium chrysogenum [5]", "result": 200, "unit": "µg/mL"}, {"measurement": "zone of inhibition at 100 µg/mL", "setting": "Staphylococcus aureus [6]", "result": 12, "unit": "mm"}, {"measurement": "zone of inhibition at 200 µg/mL", "setting": "Pseudomonas fluorescens [7]", "result": 12, "unit": "mm"}, {"measurement": "zone of inhibition at 500 µg/mL", "setting": "Micrococcus luteus [8]", "result": 21, "unit": "mm"}, {"measurement": "zone of inhibition at 200 µg/mL", "setting": "Micrococcus luteus [9]", "result": 19, "unit": "mm"}, {"measurement": "zone of inhibition at 1500 µg/mL", "setting": "Pseudomonas aeruginosa [10]", "result": 21, "unit": "mm"}, {"measurement": "zone of inhibition at 500 µg/mL", "setting": "Escherichia coli [11]", "result": 17, "unit": "mm"}, {"measurement": "zone of inhibition at 100 µg/mL", "setting": "Escherichia coli [12]", "result": 13, "unit": "mm"}, {"measurement": "zone of inhibition at 500 µg/mL", "setting": "Penicillium chrysogenum [13]", "result": 19, "unit": "mm"}, {"measurement": "zone of inhibition at 100 µg/mL", "setting": "Bacillus pumilus [14]", "result": 12, "unit": "mm"}, {"measurement": "zone of inhibition at 200 µg/mL", "setting": "Aspergillus niger [15]", "result": 18, "unit": "mm"}, {"measurement": "zone of inhibition at 1500 µg/mL", "setting": "Pseudomonas fluorescens [16]", "result": 18, "unit": "mm"}, {"measurement": "zone of inhibition at 500 µg/mL", "setting": "Pseudomonas aeruginosa [17]", "result": 19, "unit": "mm"}, {"measurement": "MIC", "setting": "Escherichia coli [18]", "result": 400, "unit": "µg/mL"}, {"measurement": "MIC", "setting": "Bacillus subtilis [19]", "result": 300, "unit": "µg/mL"}, {"measurement": "zone of inhibition at 1000 µg/mL", "setting": "Staphylococcus aureus [20]", "result": 18, "unit": "mm"}, {"measurement": "zone of inhibition at 200 µg/mL", "setting": "Pseudomonas aeruginosa [21]", "result": 18, "unit": "mm"}, {"measurement": "zone of inhibition at 1500 µg/mL", "setting": "Penicillium chrysogenum [22]", "result": 21, "unit": "mm"}, {"measurement": "zone of inhibition at 1000 µg/mL", "setting": "Bacillus subtilis [23]", "result": 19, "unit": "mm"}, {"measurement": "zone of inhibition at 100 µg/mL", "setting": "Bacillus subtilis [24]", "result": 13, "unit": "mm"}, {"measurement": "zone of inhibition at 500 µg/mL", "setting": "Pseudomonas fluorescens [25]", "result": 14, "unit": "mm"}, {"measurement": "zone of inhibition at 1500 µg/mL", "setting": "Bacillus pumilus [26]", "result": 19, "unit": "mm"}, {"measurement": "zone of inhibition at 500 µg/mL", "setting": "Aspergillus niger [27]", "result": 19, "unit": "mm"}]}
